Legend:
Plasmodium falciparum [1] = test: ST_JUDE: Plasmodium falciparum 3D7 EC50 (uM) as measured by SYBR green dye; assay type: functional, organism-based
Plasmodium falciparum [2] = test: ST_JUDE: Plasmodium falciparum K1 EC50 (uM) as measured by SYBR green dye; assay type: functional, organism-based

CCN1CCN(c2cc(C)c3cc(NC(=O)/C=C/c4ccccc4OC(C)C)ccc3n2)CC1
EC50 (Plasmodium falciparum [1]): 1.06 µM | EC50 (Plasmodium falciparum [2]): 2.98 µM

O=C(O)c1ccc(CN2C(=O)c3ccccc3C2=O)cc1
EC50 (Plasmodium falciparum [1]): > 15 µM | EC50 (Plasmodium falciparum [2]): > 15 µM

CCCOc1cc(O)c(-c2[nH]nc(C)c2Oc2ccccc2)cc1CC
EC50 (Plasmodium falciparum [1]): 3.83 µM | EC50 (Plasmodium falciparum [2]): 2.1 µM

Oc1c(C(Nc2ccccn2)c2cccc(Cl)c2Cl)ccc2cccnc12 (stereo not given)
EC50 (Plasmodium falciparum [1]): 1.77 µM | EC50 (Plasmodium falciparum [2]): 2.44 µM

COc1ccc(OC)c(C2CC(=O)C3=C(C2)NC(=O)CC3c2ccc(OC)c(OC)c2)c1 (stereo not given)
EC50 (Plasmodium falciparum [1]): 2.41 µM | EC50 (Plasmodium falciparum [2]): 3.79 µM

Cc1c(C=O)c2ccccc2n1CC(=O)Nc1cccc(I)c1
EC50 (Plasmodium falciparum [1]): 3 µM | EC50 (Plasmodium falciparum [2]): 3.03 µM

Oc1c(C(Nc2ccccn2)c2ccc(Br)cc2)ccc2cccnc12 (stereo not given)
EC50 (Plasmodium falciparum [1]): 1.22 µM | EC50 (Plasmodium falciparum [2]): 2.84 µM

CCOc1ccc(-c2nonc2NC(=O)c2ccccc2Cl)cc1OCC
EC50 (Plasmodium falciparum [1]): 0.49 µM | EC50 (Plasmodium falciparum [2]): 0.538 µM

CCOc1ccc2nc(C)cc(Nc3cccc(OC)c3)c2c1
EC50 (Plasmodium falciparum [1]): 3.41 µM | EC50 (Plasmodium falciparum [2]): 6.76 µM

CCc1c(C)nc(-n2nc(C)cc2NC(=O)c2ccc(C(C)(C)C)cc2)nc1O
EC50 (Plasmodium falciparum [1]): > 15 µM | EC50 (Plasmodium falciparum [2]): > 15 µM

Cc1ccc(/C=C2\Oc3c(ccc(O)c3CN3CCCCC3)C2=O)cc1
EC50 (Plasmodium falciparum [1]): 2.89 µM | EC50 (Plasmodium falciparum [2]): 0.28 µM

CCc1ccc(C2c3c(-c4ccccc4O)n[nH]c3C(=O)N2CCCOC(C)C)cc1 (stereo not given)
EC50 (Plasmodium falciparum [1]): > 15 µM | EC50 (Plasmodium falciparum [2]): > 15 µM

Cc1ccc2c(c1)c1c(n2CC(O)CNC2CCCC2)CCCC1 (stereo not given)
EC50 (Plasmodium falciparum [1]): 2.9 µM | EC50 (Plasmodium falciparum [2]): 1.72 µM

Brc1ccc(C2=CC(c3ccccc3)n3ncnc3N2)cc1 (stereo not given)
EC50 (Plasmodium falciparum [1]): > 15 µM | EC50 (Plasmodium falciparum [2]): > 15 µM

CC(C)Nc1c2ccccc2nc2ccccc12
EC50 (Plasmodium falciparum [1]): 2.54 µM | EC50 (Plasmodium falciparum [2]): 4.07 µM

O=C(N1CCCN(C(=O)C(Cl)(Cl)Cl)CC1)C(Cl)(Cl)Cl
EC50 (Plasmodium falciparum [1]): 3.42 µM | EC50 (Plasmodium falciparum [2]): 2.23 µM

CN(C)CCNCCCOc1ccc(Cl)cc1Cc1ccccc1
EC50 (Plasmodium falciparum [1]): 5.82 µM | EC50 (Plasmodium falciparum [2]): > 15 µM

CCCOc1ccc(CSC2=NCCN2)cc1[N+](=O)[O-]
EC50 (Plasmodium falciparum [1]): 6.86 µM | EC50 (Plasmodium falciparum [2]): 6.96 µM

O=C1C(Nc2cccc(F)c2)=C(N2CCCCC2)C(=O)c2ccccc21
EC50 (Plasmodium falciparum [1]): 0.261 µM | EC50 (Plasmodium falciparum [2]): 0.471 µM

O=C(CCNc1ccc(Oc2ccccc2)cc1)c1ccco1
EC50 (Plasmodium falciparum [1]): > 15 µM | EC50 (Plasmodium falciparum [2]): > 15 µM

CCCCn1nnnc1NCc1cc(Cl)c(OC)c(OC)c1
EC50 (Plasmodium falciparum [1]): 5.86 µM | EC50 (Plasmodium falciparum [2]): > 15 µM

CO/C(O)=C1\C(C)=NC2=C(C(=O)CC(c3ccccc3Cl)C2)C1c1ccc(OC)c(OC)c1 (stereo not given)
EC50 (Plasmodium falciparum [1]): > 15 µM | EC50 (Plasmodium falciparum [2]): 9.39 µM

COC(=O)C1=C(C(=O)OC)C2(OC1c1cccc(F)c1)C(=O)c1ccccc1C2=O (stereo not given)
EC50 (Plasmodium falciparum [1]): 3.97 µM | EC50 (Plasmodium falciparum [2]): > 15 µM

Cc1cc(Cl)c(S(=O)(=O)N(C)C)cc1OCC(=O)Nc1ccccc1
EC50 (Plasmodium falciparum [1]): > 15 µM | EC50 (Plasmodium falciparum [2]): > 15 µM

C=CCOC(=O)C1=C(C)N=C(C)/C(=C(\O)OCC=C)C1c1ccc(OC)c(OC)c1 (stereo not given)
EC50 (Plasmodium falciparum [1]): 4.4 µM | EC50 (Plasmodium falciparum [2]): 5.93 µM

CC(C)CN1C(=O)c2ccccc2C(C(=O)Nc2ccc(Cl)cn2)C1c1cccs1 (stereo not given)
EC50 (Plasmodium falciparum [1]): 3.44 µM | EC50 (Plasmodium falciparum [2]): 4.78 µM

COc1ccc(CCN2C(=O)c3[nH]nc(-c4ccccc4O)c3C2c2ccc(F)cc2)cc1 (stereo not given)
EC50 (Plasmodium falciparum [1]): > 15 µM | EC50 (Plasmodium falciparum [2]): > 15 µM

CCCCn1c(=O)c2c(nc3n(-c4ccc(C)c(Cl)c4)c(C)cn23)n(C)c1=O
EC50 (Plasmodium falciparum [1]): > 15 µM | EC50 (Plasmodium falciparum [2]): > 15 µM

Cc1ccc(-n2cc(CN3CCCC(C(N)=O)C3)c(-c3cccc(C)c3)n2)cc1 (stereo not given)
EC50 (Plasmodium falciparum [1]): 5.24 µM | EC50 (Plasmodium falciparum [2]): 4.22 µM

CCCC(=O)NC(c1ccccc1OC)c1ccc2cccnc2c1O (stereo not given)
EC50 (Plasmodium falciparum [1]): 2.2 µM | EC50 (Plasmodium falciparum [2]): 3.43 µM

COc1nc(-c2ccncc2)nc2ccccc12
EC50 (Plasmodium falciparum [1]): > 15 µM | EC50 (Plasmodium falciparum [2]): > 15 µM

CCOc1ccc(C(=O)Nc2cc(C)nn2-c2nc(C)c(CC)c(O)n2)cc1OCC
EC50 (Plasmodium falciparum [1]): > 15 µM | EC50 (Plasmodium falciparum [2]): > 15 µM

O=C1CC(c2ccc(C(F)(F)F)cc2)C2=C(CC(c3ccccc3Cl)CC2=O)N1 (stereo not given)
EC50 (Plasmodium falciparum [1]): 1.66 µM | EC50 (Plasmodium falciparum [2]): 0.828 µM

CSc1cccc(NC(=O)Cn2c(=O)sc3ccccc32)c1
EC50 (Plasmodium falciparum [1]): > 15 µM | EC50 (Plasmodium falciparum [2]): > 15 µM

CCCCc1ccc(NS(=O)(=O)c2cc3c4c(c2)CCN4C(=O)CC3)cc1
EC50 (Plasmodium falciparum [1]): > 15 µM | EC50 (Plasmodium falciparum [2]): > 15 µM

O=[N+]([O-])c1ccc(S(=O)(=O)N2CCN(C3CCC(c4ccccc4)CC3)CC2)cc1 (stereo not given)
EC50 (Plasmodium falciparum [1]): > 15 µM | EC50 (Plasmodium falciparum [2]): > 15 µM

CCCCC(O)(c1ccc(OC)cc1)C(CN1CCCCC1)c1ccccc1 (stereo not given)
EC50 (Plasmodium falciparum [1]): 4.6 µM | EC50 (Plasmodium falciparum [2]): 2.73 µM

CCOCCCn1c(=N)c(C(=O)NCc2cccnc2)cc2c(=O)n3cccc(C)c3nc21
EC50 (Plasmodium falciparum [1]): > 15 µM | EC50 (Plasmodium falciparum [2]): > 15 µM

O=C(Cc1ccccc1)NC(c1ccc(Cl)cc1)c1c(O)ccc2ccccc12 (stereo not given)
EC50 (Plasmodium falciparum [1]): > 15 µM | EC50 (Plasmodium falciparum [2]): > 15 µM

CCOC(=O)c1c(NC(=S)NCCc2ccccc2)sc2c1CC(C)(C)OC2
EC50 (Plasmodium falciparum [1]): > 15 µM | EC50 (Plasmodium falciparum [2]): > 15 µM

CC1CCN(Cc2c(O)ccc3ccccc23)CC1
EC50 (Plasmodium falciparum [1]): 0.368 µM | EC50 (Plasmodium falciparum [2]): 0.492 µM

CC(=O)NC(c1ccccc1Cl)c1ccc2cccnc2c1O (stereo not given)
EC50 (Plasmodium falciparum [1]): 3.39 µM | EC50 (Plasmodium falciparum [2]): 3.79 µM

COc1cc(/C=C/c2ccc3cccc(OC(C)=O)c3n2)cc(Cl)c1OC
EC50 (Plasmodium falciparum [1]): > 15 µM | EC50 (Plasmodium falciparum [2]): 6.11 µM

CCN1/C(=C/c2sc3ccc(C(=O)OC)cc3[n+]2CC)C=Cc2cc(OC)ccc21
EC50 (Plasmodium falciparum [1]): 0.0668 µM | EC50 (Plasmodium falciparum [2]): 0.154 µM

CC(C)c1ccc(NC(=O)CSc2n[nH]c(-c3ccccc3Cl)n2)cc1
EC50 (Plasmodium falciparum [1]): 4.78 µM | EC50 (Plasmodium falciparum [2]): 4.96 µM

O=C(Nc1ccc2oc(-c3ccc(F)cc3Cl)nc2c1)C(Cl)(Cl)Cl
EC50 (Plasmodium falciparum [1]): > 15 µM | EC50 (Plasmodium falciparum [2]): > 15 µM

CCCCCCCCc1c(C)c(C#N)c2nc3ccccc3n2c1-n1cnc2ccccc21
EC50 (Plasmodium falciparum [1]): > 15 µM | EC50 (Plasmodium falciparum [2]): > 15 µM

Cc1ccc(NC2=NC(=O)CC(C(=O)Nc3ccc(C(C)C)cc3)S2)cc1C (stereo not given)
EC50 (Plasmodium falciparum [1]): > 15 µM | EC50 (Plasmodium falciparum [2]): > 15 µM

CCOCc1cc(CN2CCN(c3cccc(C(F)(F)F)c3)CC2)c(O)c2ncccc12
EC50 (Plasmodium falciparum [1]): 1.41 µM | EC50 (Plasmodium falciparum [2]): 1.49 µM

N=C(N)N/N=C/c1ccncc1
EC50 (Plasmodium falciparum [1]): 3.49 µM | EC50 (Plasmodium falciparum [2]): > 15 µM

CCCOc1cc(Br)c(C2NC(S)=NC(c3ccccc3)=C2C(C)=O)cc1OCC (stereo not given)
EC50 (Plasmodium falciparum [1]): > 15 µM | EC50 (Plasmodium falciparum [2]): 4.24 µM

CC(C)CN1CCN(Cc2cc(Cl)ccc2O)CC1CCO (stereo not given)
EC50 (Plasmodium falciparum [1]): > 15 µM | EC50 (Plasmodium falciparum [2]): 4.82 µM

COc1ccc2c(c1OC)C(=O)N1c3ccccc3N=C(c3ccc(C)cc3)CC21 (stereo not given)
EC50 (Plasmodium falciparum [1]): 2.53 µM | EC50 (Plasmodium falciparum [2]): 1.7 µM

CC(=O)N(C1=C(N2CCCC2)C(=O)c2ccccc2C1=O)C1CCCCC1
EC50 (Plasmodium falciparum [1]): 0.28 µM | EC50 (Plasmodium falciparum [2]): 0.399 µM

CCN(CC)CCOC(=O)c1ccc(NC(=O)c2cc3cc4cc(OC)ccc4nc3s2)cc1
EC50 (Plasmodium falciparum [1]): 1.7 µM | EC50 (Plasmodium falciparum [2]): 3.31 µM

CCOCCn1/c(=N/C(=O)COc2ccc(Cl)cc2)sc2cc(OCC)ccc21
EC50 (Plasmodium falciparum [1]): > 15 µM | EC50 (Plasmodium falciparum [2]): > 15 µM

CCOC(=O)C1=C(C)N=c2s/c(=C\c3ccc(O)cc3)c(=O)n2C1c1ccc(OC)c(OCC)c1 (stereo not given)
EC50 (Plasmodium falciparum [1]): 0.77 µM | EC50 (Plasmodium falciparum [2]): > 15 µM

O=[N+]([O-])c1ccccc1C(Nc1ccccn1)c1cc(Cl)c2cccnc2c1O (stereo not given)
EC50 (Plasmodium falciparum [1]): 8.67 µM | EC50 (Plasmodium falciparum [2]): > 15 µM

CCCCCn1c(=N)n(CC(O)COc2cccc(C)c2)c2ccccc21 (stereo not given)
EC50 (Plasmodium falciparum [1]): 2.65 µM | EC50 (Plasmodium falciparum [2]): 1.36 µM

Cc1c(C(=O)Nc2cc(Cl)ccc2Cl)cccc1[N+](=O)[O-]
EC50 (Plasmodium falciparum [1]): > 15 µM | EC50 (Plasmodium falciparum [2]): > 15 µM

Cc1c(Cl)cccc1NC(=O)c1ccccc1[N+](=O)[O-]
EC50 (Plasmodium falciparum [1]): > 15 µM | EC50 (Plasmodium falciparum [2]): > 15 µM

CC(C)(C)c1ccc(C(=O)Nc2c3c(nn2-c2ccc([N+](=O)[O-])cc2)CS(=O)(=O)C3)cc1
EC50 (Plasmodium falciparum [1]): 10.6 µM | EC50 (Plasmodium falciparum [2]): 3.09 µM

COc1ccc(OC)c(NC(=O)C2c3ccccc3C(=O)N(C)C2c2cccs2)c1 (stereo not given)
EC50 (Plasmodium falciparum [1]): > 15 µM | EC50 (Plasmodium falciparum [2]): 4.28 µM

CCC(=O)C1=C(c2ccc(F)cc2)N(C(=O)CC)n2cnnc2S1
EC50 (Plasmodium falciparum [1]): > 15 µM | EC50 (Plasmodium falciparum [2]): > 15 µM

O=C(CSc1nccn1Cc1ccccc1Cl)Nc1cc(C(F)(F)F)ccc1Cl
EC50 (Plasmodium falciparum [1]): > 15 µM | EC50 (Plasmodium falciparum [2]): 1.39 µM

CCN(CC)c1ccc(/C=N/NC(=O)c2cccc(NC(=O)c3ccc(C)cc3)c2)c(O)c1
EC50 (Plasmodium falciparum [1]): 5.46 µM | EC50 (Plasmodium falciparum [2]): > 15 µM

O=[N+]([O-])c1cc(C(F)(F)F)ccc1NCCCNS(=O)(=O)c1ccc(Cl)cc1
EC50 (Plasmodium falciparum [1]): > 15 µM | EC50 (Plasmodium falciparum [2]): > 15 µM

CCCCc1ccc(NC(=O)CSc2nc3c(c(=O)n2C)SC(C)C3)cc1 (stereo not given)
EC50 (Plasmodium falciparum [1]): 2.93 µM | EC50 (Plasmodium falciparum [2]): 2.05 µM

CCO/C(O)=C1\C(C)=NC2=C(C(=O)CC(c3ccc(Cl)cc3)C2)C1c1cc(F)ccc1F (stereo not given)
EC50 (Plasmodium falciparum [1]): > 15 µM | EC50 (Plasmodium falciparum [2]): > 15 µM

CCCCN(C)Cc1c(O)ccc2c(=O)c(Oc3ccccc3OCC)c(C(F)(F)F)oc12
EC50 (Plasmodium falciparum [1]): 2 µM | EC50 (Plasmodium falciparum [2]): 1.47 µM

Reference: ChEMBL document CHEMBL1154198, “Chemical genetics of Plasmodium falciparum” (Nature, 2010)
